The target in one test is T1, human NAMPT (Homo sapiens, UniProt P43490).
T1 construct: N-terminally His6-tagged recombinant full length human NAMPT; His6 (N); made in house; host or cells: E. coli
Briefly: NAMPT biochemical assay (hNAMPT IC50), cascade assay with NMNAT1 and NAD/NADH-Glo detection. To be noted: Table 2; replicate values on separate lines. The source says: NAMPT Biochemical Assay (hNAMPT IC50)
Nicotinamide phosphoribosyltransferase (NAMPT) inhibitory activity of compounds of the present invention was quantified employing a cascade assay as described in the following paragraphs. The assay couples the conversion of nicotinamide (NAM) to nicotinamide mononucleotide (NMN) by NAMPT with the conversion of NMN to […] adenine dinucleotide (NAD^+) by nicotinamide mononucleotide adenylyltransferase 1 (NMNAT1) and the subsequent quantification of the generated NAD^+ by a commercial detection kit (NAD/NADH-Glo™ Assay from Promega, #G9072).
N-terminally His6-tagged recombinant full length human NAMPT and N-terminally His6-tagged recombinant full length human NMNAT1, both expressed in E. coli and purified via Ni-NTA-affinity chromatography and consecutive size exclusion chromatography, were used as enzymes.
For the assay 50 nl of a 100 fold concentrated solution of the test compound in DMSO was pipetted into a white low volume 384 well microtiter plate (Greiner Bio-One, Frickenhausen, Germany), 2.5 μl of a solution of NAMPT in aqueous NMNAT1-containing assay buffer [50 mM Tris/HCl pH 7.5, 12 mM MgCl2, 0.6 mM adenosine-tri-phosphate (ATP), 1 nM NMNAT1, 0.02% (w/v) bovine serum albumin (Sigma-Aldrich #P7906), 0.001% (v/v) Tween-20 (Sigma-Aldrich #P7949)] were added and the mixture was incubated for 15 min at 22° C. to allow pre-binding of the test compounds to the enzyme before the start of the enzyme reaction. Then the reaction was started by the addition of 2.5 μl of a solution of NAM (300 nM=>final conc. in the 5 μl assay volume is 150 nM, Sigma-Aldrich #^47865) and 5-phosphorylribose-1-pyrophosphate pentasodium salt (PRPP, 1.2 μM=>final conc. in the 5 μl assay volume is 0.6 μM, Sigma-Aldrich P8296) in assay buffer and the resulting mixture was incubated for a reaction time of 20 min at 22° C. The concentration of NAMPT was adjusted depending of the activity of the enzyme lot and was chosen appropriate to have the assay in the linear range, typical final concentration in the 5 μl assay volume was 0.16 nM.
The resulting mixture was incubated 2 h at 22° C. to allow a steady-state of the detection system. Subsequently the generated luminescence was measured in a suitable luminescence reader, e.g. a Viewlux™ (Perkin-Elmer), and taken as a measure for the generated NAD^+.

The subject of the next test is MDA-MB-453. The test can be described thus: Cell proliferation assay, Cell Titer Glo (CTG) method, MDA-MB-453. It counts as cell-based. As for the experimental part: (§1) Cell Proliferation Assay for Nampt-ADCs and Nampt-SMOLs
(§2) Cell Titer Glo (CTG) Method
(§3) To this end, 75 μL per well CTG solution (Promega, catalog #G755B and G756B) was added to cells in sister plates, incubated for 10 min, and luminescence was measured on a VICTOR V instrument (Perkin Elmer). After incubation for either 72 or 96 hrs (Table 1) in the presence of test compounds, 100 μl per well CTG solution was added to all test wells, incubated for 10 min and luminescence was measured on a VICTOR V instrument. […] The DRC software is a Biobook Spreadsheet that was developed by Bayer AG and Bayer Business Services on the IDBS E-Workbook Suite platform (IDBS: ID Business Solutions Ltd., Guildford, UK).
On the technique in general: Cellular ATP, detected with luciferase, serves as a proxy for viable cell number.

Another test relates to A549 C4.4a B4. Briefly: Cell proliferation assay, Cell Titer Glo (CTG) method, A549 C4.4a B4. The class given is cell-based, human. As for the experimental part: as §1, §2, §3
Another test has as its system THP-1. The test can be described thus: Cell proliferation assay, Cell Titer Glo (CTG) method, THP-1. The class given is cell-based, human. The note with it: 72 h. As for the experimental part:
as §1, §2, §3

The next test has as its system U251 MG. The test can be described thus: Cell proliferation assay, Cell Titer Glo (CTG) method, U251 MG. The class given is cell-based. As for the experimental part: as §1, §2, §3
The mark [1] stands for this setting: Homo sapiens, MDA-MB-453, 72 h, Table 2, read-out: MDA-MB-453 72 h IC50.
The mark [2] stands for this setting: Homo sapiens, A549, 72 h, Table 2, read-out: A549 C4.4a B4 72 h IC50.
The mark [3] stands for this setting: Homo sapiens, U-251, 72 h, Table 2.

“And” between values parts separate entries of the source, which are not always exact repeats. Equal entries are not always repeated. Where two headings read alike, the source gives them in different places.

T1 sequence (P43490 whole entry): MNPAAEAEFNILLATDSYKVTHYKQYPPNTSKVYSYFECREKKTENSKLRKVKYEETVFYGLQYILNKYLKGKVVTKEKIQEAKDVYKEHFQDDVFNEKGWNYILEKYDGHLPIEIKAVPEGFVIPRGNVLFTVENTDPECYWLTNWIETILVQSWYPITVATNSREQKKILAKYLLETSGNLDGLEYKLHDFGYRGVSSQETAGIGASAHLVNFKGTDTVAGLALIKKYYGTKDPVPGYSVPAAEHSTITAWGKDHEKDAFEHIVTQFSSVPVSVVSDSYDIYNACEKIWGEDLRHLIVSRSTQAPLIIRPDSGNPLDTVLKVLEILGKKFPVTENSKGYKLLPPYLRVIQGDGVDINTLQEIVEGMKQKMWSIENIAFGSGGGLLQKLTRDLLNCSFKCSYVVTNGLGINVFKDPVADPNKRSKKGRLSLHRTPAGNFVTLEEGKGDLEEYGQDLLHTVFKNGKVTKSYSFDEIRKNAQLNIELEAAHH

As for `O=C(Nc1ccc(-c2cc(-c3ccc4cccnc4c3)c(=O)[nH]n2)cc1)N1Cc2ccncc2C1` [Example 24, N-{4-[6-oxo-5-(quinolin-7-yl)-1,6-dihydropyridazin-3-yl]phenyl}-1,3-dihydro-2H-pyrrolo[3,4-c]pyridine-2-carboxamide], the IC50 against human NAMPT was 0.241 nM and 0.295 nM; in the test on MDA-MB-453 (setting [1]), < 0.03 nM; with A549 C4.4a B4 (setting [2]), 4.92 nM; in the test on THP-1 (Homo sapiens, THP-1, Table 2) it was 0.00996 nM; in the test with U251 MG (setting [3]), < 0.03 nM.
For the compound `O=C1NN=C(c2ccc(NC(=O)N3Cc4ccncc4C3)cc2)CC1c1ccc2[nH]ccc2c1` (centres unmarked) [Example 21, N-{4-[5-(1H-Indol-5-yl)-6-oxo-1,4,5,6-tetrahydropyridazin-3-yl]phenyl}-1,3-dihydro-2H-pyrrolo[3,4-c]pyridine-2-carboxamide], the IC50 against human NAMPT was 0.393 nM and 0.47 nM; in the test with MDA-MB-453 (setting [1]), < 0.03 nM; in the test on A549 C4.4a B4 (setting [2]), 40.5 nM; in the test on THP-1 (Homo sapiens, THP-1, Table 2) it was < 0.003 nM; in the test on U251 MG (setting [3]) it was < 0.03 nM.
With `NCCCCCCn1nc(-c2ccc(NC(=O)N3Cc4ccncc4C3)cc2)cc(-c2cccc3ncccc23)c1=O` [Example 6, N-{4-[1-(6-Aminohexyl)-6-oxo-5-(quinolin-5-yl)-1,6-dihydropyridazin-3-yl]phenyl}-1,3-dihydro-2H-pyrrolo[3,4-c]pyridine-2-carboxamide], the IC50 on human NAMPT is 0.267 nM and 0.288 nM; in the test on MDA-MB-453 (setting [1]), < 0.03 nM; in the test with A549 C4.4a B4 (setting [2]) it was 11 nM; with THP-1 (Homo sapiens, THP-1, Table 2) it was < 0.003 nM; with U251 MG (setting [3]), < 0.03 nM.
Regarding `Cc1nnc(-c2cc(-c3ccc(NC(=O)N4Cc5ccncc5C4)cc3)nn(CCCCCCN)c2=O)o1` [Example 10, N-{4-[1-(6-Aminohexyl)-5-(5-methyl-1,3,4-oxadiazol-2-yl)-6-oxo-1,6-dihydropyridazin-3-yl]phenyl}-1,3-dihydro-2H-pyrrolo[3,4-c]pyridine-2-carboxamide], the IC50 was 0.358 nM and 0.389 nM against human NAMPT; 0.0943 nM in the test on MDA-MB-453 (setting [1]); 267 nM with A549 C4.4a B4 (setting [2]); 0.00471 nM in the test with THP-1 (Homo sapiens, THP-1, Table 2); 8.87 nM in the test on U251 MG (setting [3]).
`Cc1nnc(-c2cc(-c3ccc(NC(=O)N4Cc5ccncc5C4)cc3)nn(CCCCN)c2=O)o1` [Example 8, N-{4-[1-(4-Aminobutyl)-5-(5-methyl-1,3,4-oxadiazol-2-yl)-6-oxo-1,6-dihydropyridazin-3-yl]phenyl}-1,3-dihydro-2H-pyrrolo[3,4-c]pyridine-2-carboxamide]: the IC50 at human NAMPT was 1.04 nM and 1.32 nM; with MDA-MB-453 (setting [1]), 2.66 nM; in the test on A549 C4.4a B4 (setting [2]) it was 93.5 nM; in the test with THP-1 (Homo sapiens, THP-1, Table 2) it was 0.979 nM; with U251 MG (setting [3]), 28.1 nM.
Take “2 or 3-{[(2R)-2-Amino-2-carboxyethyl]sulfanyl}-4-{[2-({6-[3-{4-[(1,3-dihydro-2H-pyrrolo[3,4-c]pyridine-2-carbonyl)amino]phenyl}-6-oxo-5-(quinolin-5-yl)-5,6-dihydropyridazin-1(4H)-yl]hexyl}amino)-2-oxoethyl]amino}-4-oxobutanoic Acid [Example 30M]”: the IC50 in the test on MDA-MB-453 (Table 3 (ADCs), DSMZ cells, 72 h, read-out: MDA-MB-453 DSMZ 72 h IC^50) was 9.96 nM; with A549 C4.4a B4 (Table 3 (ADCs), 72 h, read-out: A549 C4.4a 72 h IC^50), > 300 nM; in the test on THP-1 (Table 3 (ADCs), read-out: THP-1 72 h IC^50), 81.1 nM; with U251 MG (Table 3 (ADCs), 72 h, read-out: U-251 72 h IC^50), > 300 nM.
`O=C(Nc1ccc(-c2cc(-c3cccc4[nH]ncc34)c(=O)[nH]n2)cc1)N1Cc2ccncc2C1` [Example 18, N-{4-[5-(1H-indazol-4-yl)-6-oxo-1,6-dihydropyridazin-3-yl]phenyl}-1,3-dihydro-2H-pyrrolo[3,4-c]pyridine-2-carboxamide]: the IC50 on human NAMPT was 0.213 nM and 0.226 nM; in the test with MDA-MB-453 (setting [1]) it was < 0.03 nM; in the test on A549 C4.4a B4 (setting [2]), 58.5 nM; with THP-1 (Homo sapiens, THP-1, Table 2) it was ≤ 0.003 nM; in the test with U251 MG (setting [3]), < 0.03 nM; in the test with U251 MG (Table 2, 72 h) it was 0.0428 nM.
Turning to `O=C(Nc1ccc(-c2cc(-c3ccc4[nH]ccc4c3)c(=O)[nH]n2)cc1)N1Cc2ccncc2C1` [Example 20, N-{4-[5-(1H-indol-5-yl)-6-oxo-1,6-dihydropyridazin-3-yl]phenyl}-1,3-dihydro-2H-pyrrolo[3,4-c]pyridine-2-carboxamide], the IC50 is 0.156 nM and 0.229 nM against human NAMPT; < 0.03 nM with MDA-MB-453 (setting [1]); 6.39 nM in the test with A549 C4.4a B4 (setting [2]); < 0.003 nM in the test on THP-1 (Homo sapiens, THP-1, Table 2); < 0.03 nM in the test on U251 MG (setting [3]).
On to `Cc1nnc(-c2cc(-c3ccc(NC(=O)N4Cc5ccncc5C4)cc3)n[nH]c2=O)o1` [Example 9, N-{4-[5-(5-methyl-1,3,4-oxadiazol-2-yl)-6-oxo-1,6-dihydropyridazin-3-yl]phenyl}-1,3-dihydro-2H-pyrrolo[3,4-c]pyridine-2-carboxamide], for which the IC50 was 0.457 nM and 0.717 nM at human NAMPT; 0.0357 nM in the test with MDA-MB-453 (setting [1]); 97.2 nM with A549 C4.4a B4 (setting [2]); 1.21 nM with THP-1 (Homo sapiens, THP-1, Table 2); 4.34 nM with U251 MG (setting [3]).
For `O=C1NN=C(c2ccc(NC(=O)N3Cc4ccncc4C3)cc2)CC1c1ccc2[nH]ncc2c1` (centres unmarked) [Example 17, N-{4-[5-(1H-indazol-5-yl)-6-oxo-1,4,5,6-tetrahydropyridazin-3-yl]phenyl}-1,3-dihydro-2H-pyrrolo[3,4-c]pyridine-2-carboxamide], the IC50 against human NAMPT was 0.218 nM and 0.346 nM; in the test on MDA-MB-453 (setting [1]), < 0.03 nM; in the test on A549 C4.4a B4 (setting [2]), 12.4 nM; in the test with THP-1 (Homo sapiens, THP-1, Table 2), 0.0385 nM; in the test with U251 MG (setting [3]) it was 0.642 nM.
For the compound `NCCCCn1nc(-c2ccc(NC(=O)N3Cc4ccncc4C3)cc2)cc(-c2ccc3cccnc3c2)c1=O` [Example 25, N-{4-[1-(4-Aminobutyl)-6-oxo-5-(quinolin-7-yl)-1,6-dihydropyridazin-3-yl]phenyl}-1,3-dihydro-2H-pyrrolo[3,4-c]pyridine-2-carboxamide], the IC50 is 0.803 nM and 1.15 nM against human NAMPT; < 0.03 nM in the test with MDA-MB-453 (setting [1]); 57.1 nM in the test with A549 C4.4a B4 (setting [2]); 0.0227 nM in the test with THP-1 (Homo sapiens, THP-1, Table 2); 0.428 nM in the test on U251 MG (setting [3]).
As to `O=C(Nc1ccc(-c2cc(-c3ccc4[nH]ncc4c3)c(=O)[nH]n2)cc1)N1Cc2ccncc2C1` [Example 16, N-{4-[5-(1H-indazol-5-yl)-6-oxo-1,6-dihydropyridazin-3-yl]phenyl}-1,3-dihydro-2H-pyrrolo[3,4-c]pyridine-2-carboxamide-hydrogen chloride], the IC50 against human NAMPT was 0.323 nM and 0.326 nM; with MDA-MB-453 (setting [1]) it was < 0.03 nM; in the test on A549 C4.4a B4 (setting [2]) it was 23.2 nM; in the test on THP-1 (Homo sapiens, THP-1, Table 2) it was < 0.003 nM; with U251 MG (setting [3]), 0.0411 nM; with U251 MG (Table 2, 72 h), 0.057 nM.
For `NCCCCN1N=C(c2ccc(NC(=O)N3Cc4ccncc4C3)cc2)C[C@](c2cccc3ncccc23)(C(F)(F)F)C1=O` [Example 13, N-{4-[(5R)-1-(4-aminobutyl)-6-oxo-5-(quinolin-5-yl)-5-(trifluoromethyl)-1,4,5,6-tetrahydropyridazin-3-yl]phenyl}-1,3-dihydro-2H-pyrrolo[3,4-c]pyridine-2-carboxamide], the IC50 at human NAMPT is 2.77 nM and 3.2 nM; with MDA-MB-453 (setting [1]), 0.436 nM; in the test with A549 C4.4a B4 (setting [2]) it was 227 nM; in the test on THP-1 (Homo sapiens, THP-1, Table 2), 0.447 nM; with U251 MG (setting [3]), 43.7 nM.
With `Cc1nnc(C2CC(c3ccc(NC(=O)N4Cc5ccncc5C4)cc3)=NNC2=O)o1` (centres unmarked) [Example 7, N-{4-[5-(5-Methyl-1,3,4-oxadiazol-2-yl)-6-oxo-1,4,5,6-tetrahydropyridazin-3-yl]phenyl}-1,3-dihydro-2H-pyrrolo[3,4-c]pyridine-2-carboxamide], the IC50 against human NAMPT is 1.02 nM and 1.2 nM; with MDA-MB-453 (setting [1]) it was 0.299 nM; with A549 C4.4a B4 (setting [2]), > 300 nM; with THP-1 (Homo sapiens, THP-1, Table 2) it was 0.995 nM; in the test on U251 MG (setting [3]), 8.95 nM.

(Values after patent publication US20200360531A1, “ANTIBODY DRUG CONJUGATES (ADCS) WITH NAMPT INHIBITORS” (Bayer Aktiengesellschaft, priority 2018, published 2020).)
